Reference: patent US20250034182A1, “PHOSPHOLIPID COMPOUNDS AND METHODS OF MAKING AND USING THE SAME” (priority 2021, published 2025)

What was measured:
Assay type in all cases: cell-based
[1] = RSV NHBE CC50 384 V2 (per Ex. U); details: human
[2] = tested on: Respiratory syncytial virus recombinant with luciferase (RSV-Luc5) in NHBE cells; test: NHBE RSV-Luc5 384-well assay (EC50 RSVFLUC NHBE-384, Example U); details: human respiratory syncytial virus, 72 h, read-out: RSV FLuc NHBE 384 EC50 (v2) (nM) (per Ex. U)
Protocol: Normal Human Bronchial Epithelial (NHBE) cells were purchased from Lonza (Walkersville, MD Cat #CC2540) and maintained in BEGM Bronchial Epithelial Cell (Growth Medium BulletKit (Lonza CC-3170).
Cells were thawed, expanded, and were used for experiments at passage 2. Respiratory syncytial virus recombinant with luciferase (RSV-Luc5) (≥1×10^7 Infectious Units/ml (IU/ml) determined by TCID50) was purchased from Microbiologics (Saint Cloud, MN). Viral replication was determined in NHBE cells in the following manner.
Compounds are prepared in 100% DMSO in 384-well polypropylene plates (Greiner, Monroe, NC, Cat #784201) with 8 compounds per plate in grouped replicates of 4 at 10 serially diluted concentrations (1:3). The serially diluted compounds were transferred to low dead volume Echo plates (Labcyte, Sunnyvale, CA, Cat #LP-0200).
The test compounds were spotted to 384-well assay plates (Greiner, Monroe, NC, Cat #781091) at 200 nL per well. NHBE cells were harvested and suspended in BEGM Bronchial Epithelial Cell Growth Medium BulletKit and seeded to the pre-spotted assay plates at 5,000 cells per well in 30 μL. RSV-Luc5 virus was diluted in BEGM Bronchial Epithelial Cell Growth Medium BulletKit at 500,000 Infectious Units (IU) per mL and 10 μL per well was added to the assay plates containing cells and compounds, for an MOI of 1. The assay plates were incubated for 3 days at 37° C. and 5% CO2. At the end of incubation, One-Glo reagent (Promega, Madison, WI, Cat #E6120) was prepared. The assay plates and One-Glo reagent were equilibrated to room temperature for at least 15 minutes. 40 μL per well of One-Glo reagent was added and the plates were incubated at room temperature for 15 minutes before reading the luminescence signal on an EnVision multimode plate reader (Perkin Elmer, Waltham, MA). Remdesivir was used as positive control and DMSO was used as negative control. Values were normalized to the positive and negative controls (as 0% and 100% replication, respectively) and data was fitted using non-linear regression analysis by Gilead's dose response tool. The EC50 value for each compound was defined as the concentration reducing the viral replication by 50%.

in vitro = details: human
Protocol: H1-HeLa cell viability was measured using the CellTiter-Glo® Luminescent Cell Viability Assay kit (Promega, Cat #G7573) according to the manufacturer's protocol. H1-HeLa cells were maintained in Dulbecco's Modified Eagle's Medium with high glucose (Gibco, Cat #: 11995073) supplemented with 10% FBS (HyClone, Cat #: SH303396.03), 100 units/mL penicillin and 100 µg/mL streptomycin (Gibco, Cat #: 15140122). One day before compound treatment, H1-HeLa cells were seeded at […] into 96-well plates (Corning, Cat #3904) in Opti-MEM (Gibco, Cat #: 31985070) supplemented with 2% FBS, and were incubated at 37° C. in a 100% humid atmosphere containing 5% (v/v) CO2. After overnight incubation, the cells were treated with three-fold serial dilutions of the compound. At 96 hours post treatment, CellTiter-Glo reagents were added into each well and luminescence signals were recorded by an EnVision plate reader. The relative cell viability was calculated by normalizing the absorbance of the compound-treated groups to that of the DMSO-treated groups (set as 100% viability) and 10 μM puromycin treated groups (set as 0% viability). The CC50 (compound concentration for reducing 50% of cell viability) was calculated using a nonlinear regression model (four parameters).

CCCCCCCCCCCCCCCCCCOC[C@H](COP(=O)(O)OC[C@@]1(C#N)O[C@@H](c2ccc3c(N)ncnn23)[C@H](O)[C@@H]1O)OCc1ccc(C#N)c(-n2cncn2)c1 [Compound 16, ((2R,3S,4R,5S)-5-(4-aminopyrrolo[2,1-f][1,2,4]triazin-7-yl)-2-cyano-3,4-dihydroxytetrahydrofuran-2-yl)methyl ((R)-2-((4-cyano-3-(1H-1,2,4-triazol-1-yl)benzyl)oxy)-3-(octadecyloxy)propyl) hydrogen phosphate]
CC50 at 3 days [1]: 4.61 µM | EC50 [2]: < 3 nM

CCCCCCCCCCCCCCCCCCOC[C@H](COP(=O)(O)OC[C@@]1(C#N)O[C@@H](c2ccc3c(N)ncnn23)[C@H](O)[C@@H]1O)Oc1ccc(C#N)c(OC(C)C)c1 [Compound 23, ((2R,3S,4R,5S)-5-(4-aminopyrrolo[2,1-f][1,2,4]triazin-7-yl)-2-cyano-3,4-dihydroxytetrahydrofuran-2-yl)methyl ((R)-2-(4-cyano-3-isopropoxyphenoxy)-3-(octadecyloxy)propyl) hydrogen phosphate]
CC50 at 3 days [1]: 5.4 µM | CC50 at 96 h (in vitro): 10.8 µM | EC50 [2]: 4 nM

CCCCCCCCCCCCCCCCCCC[C@H](COP(=O)(O)OC[C@@]1(C#N)O[C@@H](c2ccc3c(N)ncnn23)[C@H](O)[C@@H]1O)OCc1ccc(C#N)c(OC(C)C)c1 [Compound 28, ((2R,3S,4R,5S)-5-(4-aminopyrrolo[2,1-f][1,2,4]triazin-7-yl)-2-cyano-3,4-dihydroxytetrahydrofuran-2-yl)methyl ((R)-2-((4-cyano-3-isopropoxybenzyl)oxy)henicosyl) hydrogen phosphate]
CC50 at 3 days [1]: 7.56 µM | CC50 at 96 h (in vitro): 9.9 µM | EC50 [2]: 46 nM

CCCCCCCCCCCCCCCCCCC[C@H](COP(=O)(O)OC[C@@]1(C#N)O[C@@H](c2ccc3c(N)ncnn23)[C@H](O)[C@@H]1O)OCc1ccc(-n2cncn2)c(C#N)c1 [Compound 30, ((2R,3S,4R)-5-(4-aminopyrrolo[2,1-f][1,2,4]triazin-7-yl)-2-cyano-3,4-dihydroxytetrahydrofuran-2-yl)methyl ((R)-2-((3-cyano-4-(1H-1,2,4-triazol-1-yl)benzyl)oxy)henicosyl) hydrogen phosphate]
CC50 at 3 days [1]: 1.72 µM | CC50 at 96 h (in vitro): 4.96 µM | EC50 [2]: 14 nM

CCCCCCCCCCCCCCCCCCCC[C@H](COP(=O)(O)OC[C@@]1(C#N)O[C@@H](c2ccc3c(N)ncnn23)[C@H](O)[C@@H]1O)OCc1cc(F)cc(C#N)c1 [Compound 34, ((2R,3S,4R)-5-(4-aminopyrrolo[2,1-f][1,2,4]triazin-7-yl)-2-cyano-3,4-dihydroxytetrahydrofuran-2-yl)methyl ((R)-2-((3-cyano-5-fluorobenzyl)oxy)docosyl) hydrogen phosphate]
CC50 at 3 days [1]: 7.25 µM | CC50 at 96 h (in vitro): 4.69 µM | EC50 [2]: 272 nM

CCCCCCCCCCCCCCCCCCC[C@H](COP(=O)(O)OC[C@@]1(C#N)O[C@@H](c2ccc3c(N)ncnn23)[C@H](O)[C@@H]1O)Oc1ccc(C#N)c(OC(C)C)c1 [Compound 38, ((2R,3S,4R,5S)-5-(4-aminopyrrolo[2,1-f][1,2,4]triazin-7-yl)-2-cyano-3,4-dihydroxytetrahydrofuran-2-yl)methyl ((R)-2-(4-cyano-3-isopropoxyphenoxy)henicosyl) hydrogen phosphate]
CC50 at 3 days [1]: 7.99 µM | CC50 at 96 h (in vitro): 6.19 µM | EC50 [2]: 25 nM

CCCCCCCCCCCCCCCCCCC[C@H](COP(=O)(O)OC[C@@]1(C#N)O[C@@H](c2ccc3c(N)ncnn23)[C@H](O)[C@@H]1O)Oc1cc(OC)c(C#N)c(OC)c1 [Compound 39, ((2R,3S,4R,5S)-5-(4-aminopyrrolo[2,1-f][1,2,4]triazin-7-yl)-2-cyano-3,4-dihydroxytetrahydrofuran-2-yl)methyl ((R)-2-(4-cyano-3,5-dimethoxyphenoxy)henicosyl) hydrogen phosphate]
CC50 at 3 days [1]: 6.46 µM | EC50 [2]: 51 nM

CCCCCCCCCCCCCCCCCCOCC(COc1cc(F)cc(C#N)c1)COP(=O)(O)OC[C@@]1(C#N)O[C@@H](c2ccc3c(N)ncnn23)[C@H](O)[C@@H]1O (stereo partly drawn) [Compound 43, ((2R,3S,4R,5S)-5-(4-aminopyrrolo[2,1-f][1,2,4]triazin-7-yl)-2-cyano-3,4-dihydroxytetrahydrofuran-2-yl)methyl (3-(3-cyano-5-fluorophenoxy)-2-((octadecyloxy)methyl)propyl) hydrogen phosphate]
CC50 at 3 days [1]: 11.9 µM | CC50 at 96 h (in vitro): 4 µM | EC50 [2]: 98 nM

CCCCCCCCCCCCCCOC[C@H](COP(=O)(O)OC[C@@]1(C#N)O[C@@H](c2ccc3c(N)ncnn23)[C@H](O)[C@@H]1O)Oc1cc(C#N)ccn1 [Compound 69, ((2R,3S,4R)-5-(4-aminopyrrolo[2,1-f][1,2,4]triazin-7-yl)-2-cyano-3,4-dihydroxytetrahydrofuran-2-yl)methyl ((R)-2-((4-cyanopyridin-2-yl)oxy)-3-(tetradecyloxy)propyl) hydrogen phosphate]
CC50 at 3 days [1]: 3.29 µM | EC50 [2]: 32 nM

CCCCCCCCCCCCCCCCCCCC[C@@H](COP(=O)(O)OC[C@@]1(C#N)O[C@@H](c2ccc3c(N)ncnn23)[C@H](O)[C@@H]1O)OCc1cc(F)cc(C#N)c1 [Compound 70, ((2R,3S,4R)-5-(4-aminopyrrolo[2,1-f][1,2,4]triazin-7-yl)-2-cyano-3,4-dihydroxytetrahydrofuran-2-yl)methyl ((S)-2-((3-cyano-5-fluorobenzyl)oxy)docosyl) hydrogen phosphate]
CC50 at 3 days [1]: 3.95 µM | EC50 [2]: 165 nM

CCCCCCCCCCCCCCCCCCOC[C@@H](COP(=O)(O)OC[C@@]1(C#N)O[C@@H](c2ccc3c(N)ncnn23)[C@H](O)[C@@H]1O)Oc1ccc(C#N)nc1 [Compound 72, ((2R,3S,4R,5S)-5-(4-aminopyrrolo[2,1-f][1,2,4]triazin-7-yl)-2-cyano-3,4-dihydroxytetrahydrofuran-2-yl)methyl ((S)-2-((6-cyanopyridin-3-yl)oxy)-3-(octadecyloxy)propyl) hydrogen phosphate]
CC50 at 3 days [1]: 1.61 µM | CC50 at 96 h (in vitro): 5.1 µM | EC50 [2]: 4 nM

CCCCCCCCCCCCCCCCC[C@@H](COP(=O)(O)OC[C@@]1(C#N)O[C@@H](c2ccc3c(N)ncnn23)[C@H](O)[C@@H]1O)OCc1cc(F)cc(C#N)c1 [Compound 74, ((2R,3S,4R)-5-(4-aminopyrrolo[2,1-f][1,2,4]triazin-7-yl)-2-cyano-3,4-dihydroxytetrahydrofuran-2-yl)methyl ((S)-2-((3-cyano-5-fluorobenzyl)oxy)nonadecyl) hydrogen phosphate]
CC50 at 3 days [1]: 1.54 µM | EC50 [2]: 85 nM

CCCCCCCCCCCCCCCCC[C@H](COP(=O)(O)OC[C@@]1(C#N)O[C@@H](c2ccc3c(N)ncnn23)[C@H](O)[C@@H]1O)OCc1cc(Cl)cc(C#N)c1 [Compound 76, ((2R,3S,4R)-5-(4-aminopyrrolo[2,1-f][1,2,4]triazin-7-yl)-2-cyano-3,4-dihydroxytetrahydrofuran-2-yl)methyl ((R)-2-((3-chloro-5-cyanobenzyl)oxy)nonadecyl) hydrogen phosphate]
CC50 at 3 days [1]: 3.55 µM | CC50 at 96 h (in vitro): 6.39 µM | EC50 [2]: 113 nM

CCCCCCCCCCCCCCCC[C@H](COP(=O)(O)OC[C@@]1(C#N)O[C@@H](c2ccc3c(N)ncnn23)[C@H](O)[C@@H]1O)OCc1cc(F)cc(C#N)c1 [Compound 78, ((2R,3S,4R,5S)-5-(4-aminopyrrolo[2,1-f][1,2,4]triazin-7-yl)-2-cyano-3,4-dihydroxytetrahydrofuran-2-yl)methyl ((R)-2-((3-cyano-5-fluorobenzyl)oxy)octadecyl) hydrogen phosphate]
CC50 at 3 days [1]: 1.2 µM | EC50 [2]: 31 nM
